Blank lines part the entries; values can stand above or below the compound they belong to.
System: 313798-341-R-J2-PDC spheroids, viability
Assay: Anticancer human tumor 313798-341-R-J2-PDC patient-derived cervical squamous cell carcinoma cell line growth inhibition [PI3K]
Details: spheroids with HUVEC and MSC; for IC50: curve of first compound; for viability, T/C: stronger effect = lower value
Excerpt: Combinatorial screen of targeted agents with the PI3K inhibitors inavolisib, alpelisib, duvelisib, and copanlisib in multi-cell type tumor spheroids
A high-throughput screen of multi-cell type tumor spheroids was designed to identify active combinations of targeted small molecules and PI3K pathway inhibitors. Complex spheroids include a stromal component modeled by human endothelial cells (HUVEC) and fibroblasts modeled by human mesenchymal stem cells (MSCs). The concentration ranges selected for each drug and investigational agent were based upon clinically achievable concentrations if the clinical Cmax of the agent was known.
Compounds. The drugs and investigational agents: inavolisib (NSC800729), alpelisib (NSC765974), duvelisib (NSC772469), copanlisib (NSC816437), ipatasertib (NSC767898), afuresertib (NSC778305), talazoparib (NSC767125), sapanisertib (NSC764658), selumetinib (NSC741078), tovorafenib (DAY101, NSC766906), vemurafenib (NSC761431), ravoxertinib (NSC781343), sotorasib (NSC818433), MRTX1133 (NSC 836407), abemaciclib (NSC 768073), palbociclib (NSC758247), venetoclax (NSC 766270), SY5609 (NSC837396), enzalutamide (NSC755605), and darolutamide (NSC825331), were obtained from the National Cancer Institute (NCI) Developmental Therapeutics Program Chemical Repository. The FDA-approved anticancer drug set is available from the NCI Developmental Therapeutics Program. […] The stock solutions were prepared in dimethyl sulfoxide (DMSO, Sigma-Aldrich, St. Louis, MO, cat. D2650) at 800-fold the tested concentration and stored at -70 degrees C prior to their use. All drugs and investigational agents were tested over a range starting from a high concentration at or near the clinical Cmax and decreasing in half-log increments. If the clinical Cmax for an agent had not been determined, the highest concentration tested was 10 microM.
Cell Culture. All cells were maintained in an incubator at 37 degrees C and 5% CO2 with 95% humidity. The PDC lines were cultured according to standard operating procedures established by the NCI PDMR (https://pdmr.cancer.gov/sops/default.htm). All PDCs were thawed and cultured in Matrigel-coated flasks prepared with a working solution of 1X Ham's F-12 nutrient mix, without supplementation (Invitrogen, Waltham, MA, cat. 11765054), 100 U/mL penicillin-streptomycin (Invitrogen, cat. 15140122), and 2.5% Matrigel (Corning Inc., Corning, NY, cat. 354248) for the first three passages. The 354836-022-R-J1-PDC, 475296-252-R-J1-PDC, and 997726-040-R-J2-PDC lines were cultured in 6A media, which includes advanced DMEM/F-12 (Thermo Fisher Scientific, cat. 12634028), 10 mM HEPES (Thermo Fisher Scientific, cat. 15630080), 1X GlutaMAX supplement (Thermo Fisher Scientific, cat. 35050061), 0.1 mg/mL primocin (InvivoGen, San Diego, CA, cat. ant-pm-2), 10% defined fetal bovine serum, heat inactivated (HyClone Laboratories Inc., Logan, UT, cat. SH30070.03HI), 50% L-WRN conditioned media (ATCC, cat. CRL-3276), 1.25 mM N-Acetyl-L-cysteine (Sigma-Aldrich, cat. A9165), 10 mM nicotinamide (Sigma-Aldrich, cat. N0636), 1X B-27 supplement (Thermo Fisher Scientific, cat. 17504044), 1X N-2 supplement (Thermo Fisher Scientific, cat. 17502048), and 10 microM Y-27632 dihydrochloride (Tocris Bioscience, Bristol, United Kingdom, cat. 1254). The 624824-186-R-J2-PDC line was cultured in 6C/Colon 1B media, which includes all 6A media components plus 50 ng/mL human EGF recombinant protein (Thermo Fisher Scientific, cat. PHG0311). […]

[1] = second compound 0.0316 µM, first compound 0.0316 µM
[2] = second compound 0.0316 µM, first compound 0.1 µM
[3] = second compound 0.0316 µM, first compound 0.316 µM
[4] = second compound 0.0316 µM, first compound 1 µM
[5] = second compound 0.0316 µM, first compound 3.16 µM
[6] = second compound 0.0316 µM, first compound 10 µM
[7] = second compound 0.1 µM, first compound 0.0316 µM
[8] = second compound 0.1 µM, first compound 0.1 µM
[9] = second compound 0.1 µM, first compound 0.316 µM
[10] = second compound 0.1 µM, first compound 1 µM
[11] = second compound 0.1 µM, first compound 3.16 µM
[12] = second compound 0.1 µM, first compound 10 µM
[13] = second compound 0.316 µM, first compound 0.0316 µM
[14] = second compound 0.316 µM, first compound 0.1 µM
[15] = second compound 0.316 µM, first compound 0.316 µM
[16] = second compound 0.316 µM, first compound 1 µM
[17] = second compound 0.316 µM, first compound 3.16 µM
[18] = second compound 0.316 µM, first compound 10 µM
[19] = second compound 1 µM, first compound 0.0316 µM
[20] = second compound 1 µM, first compound 0.1 µM
[21] = second compound 1 µM, first compound 0.316 µM
[22] = second compound 1 µM, first compound 1 µM
[23] = second compound 1 µM, first compound 3.16 µM
[24] = second compound 1 µM, first compound 10 µM
[25] = second compound 3.16 µM, first compound 0.0316 µM
[26] = second compound 3.16 µM, first compound 0.1 µM
[27] = second compound 3.16 µM, first compound 0.316 µM
[28] = second compound 3.16 µM, first compound 1 µM
[29] = second compound 3.16 µM, first compound 3.16 µM
[30] = second compound 3.16 µM, first compound 10 µM
[31] = second compound 10 µM, first compound 0.0316 µM
[32] = second compound 10 µM, first compound 0.1 µM
[33] = second compound 10 µM, first compound 0.316 µM
[34] = second compound 10 µM, first compound 1 µM
[35] = second compound 10 µM, first compound 3.16 µM
[36] = second compound 10 µM, first compound 10 µM
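Further: spheroids exposed to compounds for seven days.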
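Wherever viability, T/C is given: 100% = DMSO vehicle control viability.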

IC50 (second compound 0.0316 µM): 8.61 µM | IC50 (second compound 0.1 µM): 6.79 µM | IC50 (second compound 0.316 µM): 6.52 µM | IC50 (second compound 1 µM): 7.03 µM | IC50 (second compound 3.16 µM): 6.39 µM | IC50 (second compound 10 µM): 4.69 µM
SMILES: CCCS(=O)(=O)Nc1ccc(F)c(C(=O)c2c[nH]c3ncc(-c4ccc(Cl)cc4)cc23)c1F + CC(Nc1ncnc2nc[nH]c12)c1cc2cccc(Cl)c2c(=O)n1-c1ccccc1
viability, T/C [1]: 103% | viability, T/C [2]: 103% | viability, T/C [3]: 108% | viability, T/C [4]: 105% | viability, T/C [5]: 96.5% | viability, T/C [6]: 43% | viability, T/C [7]: 112% | viability, T/C [8]: 103% | viability, T/C [9]: 90.3% | viability, T/C [10]: 90.9% | viability, T/C [11]: 92.8% | viability, T/C [12]: 28.1% | viability, T/C [13]: 92.6% | viability, T/C [14]: 96.5% | viability, T/C [15]: 101% | viability, T/C [16]: 104% | viability, T/C [17]: 93.9% | viability, T/C [18]: 23.8% | viability, T/C [19]: 112% | viability, T/C [20]: 99.6% | viability, T/C [21]: 98.8% | viability, T/C [22]: 116% | viability, T/C [23]: 98.8% | viability, T/C [24]: 27.8% | viability, T/C [25]: 107% | viability, T/C [26]: 101% | viability, T/C [27]: 118% | viability, T/C [28]: 106% | viability, T/C [29]: 90.1% | viability, T/C [30]: 24.5% | viability, T/C [31]: 95% | viability, T/C [32]: 101% | viability, T/C [33]: 91.2% | viability, T/C [34]: 83.8% | viability, T/C [35]: 69.2% | viability, T/C [36]: 16.6%

IC50 (second compound 0.0316 µM): > 10 µM | IC50 (second compound 0.1 µM): > 10 µM | IC50 (second compound 0.316 µM): > 10 µM | IC50 (second compound 1 µM): > 10 µM | IC50 (second compound 3.16 µM): > 10 µM | IC50 (second compound 10 µM): > 10 µM
SMILES: CNC(=O)c1ccc(N2C(=S)N(c3ccc(C#N)c(C(F)(F)F)c3)C(=O)C2(C)C)cc1F + CC(Nc1ncnc2nc[nH]c12)c1cc2cccc(Cl)c2c(=O)n1-c1ccccc1
viability, T/C [1]: 104% | viability, T/C [2]: 110% | viability, T/C [3]: 100% | viability, T/C [4]: 92.4% | viability, T/C [5]: 121% | viability, T/C [6]: 98.8% | viability, T/C [7]: 102% | viability, T/C [8]: 101% | viability, T/C [9]: 112% | viability, T/C [10]: 99.4% | viability, T/C [11]: 106% | viability, T/C [12]: 101% | viability, T/C [13]: 94.8% | viability, T/C [14]: 98.3% | viability, T/C [15]: 92.6% | viability, T/C [16]: 98.8% | viability, T/C [17]: 98.3% | viability, T/C [18]: 96.5% | viability, T/C [19]: 95% | viability, T/C [20]: 96.5% | viability, T/C [21]: 97.8% | viability, T/C [22]: 109% | viability, T/C [23]: 100% | viability, T/C [24]: 93.2% | viability, T/C [25]: 111% | viability, T/C [26]: 101% | viability, T/C [27]: 92.9% | viability, T/C [28]: 93.9% | viability, T/C [29]: 97.1% | viability, T/C [30]: 84.8% | viability, T/C [31]: 82.8% | viability, T/C [32]: 86.1% | viability, T/C [33]: 85.5% | viability, T/C [34]: 85.6% | viability, T/C [35]: 88.4% | viability, T/C [36]: 73.2%
